Values quoted from earlier work in US20190008784A1, “NOVEL SECNIDAZOLE SOFT GELATIN CAPSULE FORMULATIONS AND USES THEREOF” (SYMBIOMIX THERAPEUTICS, LLC, priority 2017, published 2019).

Legend:
bacterial vaginosis [1] = settings: intravaginal 750 mg ovule compared with 500 mg ovule
bacterial vaginosis [2] = settings: 500 mg ovule formulation compared with 37.5 mg gel

## Cc1ncc([N+](=O)[O-])n1CCO [metronidazole]
Bacterial vaginosis [1]
  Cure rates: higher cure rates
Bacterial vaginosis [2]
  Effectiveness in the treatment of bacterial vaginosis: significantly more effective
